Tests used:
[1] = system: HepG2 cells; assay: MTT cytotoxicity assay in the absence or presence of BSA; format: cell-based; details: agent-BSA 1:1, medium without FCS, 8 h incubation
Method: It has been reported that HSA could enhance the anti-proliferative activity of Dp44mT [13]. Thus, we examined the effect of BSA on both DPPCAH- and DPPCAH-Cu-mediated inhibition of HepG2 cells in which BSA was the main protein source in the cell culture.
Figure 1 Inhibition of proliferation of HepG2 cells by DPPCAH and DPPCAH-Cu in the absence or presence of BSA. Dpp = DPPCAH; * p < 0.01 (t-test).
A stock solution of DPPCAH (10 mM) was prepared in 80% DMSO, and was diluted to the required concentration with culture medium when used. The DPPCAH-Cu was prepared by mixing highly concentrated copper chloride with DPPCAH based on 1:1 molar ratio, and diluted to the required concentration with water. BSA was dissolved in PBS and was sterilized by filter sterilization method. HepG2 cells were cultured in RPMI-1640 medium supplemented with 10% fetal calf serum (FCS) and antibiotics. The cells collected in the exponential-phase (5 × 10^3 /mL) were seeded equivalently into a 96-well plate, followed by 6 h of incubation. […] The plate was read using a microplate reader (MK3; Thermo Fisher Scientific (Shanghai) Co. LTD, Shanghai, China) at 570 nm and the measurement of absorbance represented an estimate of the number of viable cells. Percent growth inhibition was defined as percent absorbance inhibition within appropriate absorbance in each cell line. […]

[2] = target: T1, BSA (Bos taurus, UniProt P02769); assay: Fluorescence quenching of BSA (Stern-Volmer, binding constants, van't Hoff thermodynamics); parameters: species or system bovine; details: for number of binding sites n per BSA / Ksv (Stern-Volmer dynamic quenching constant) / ΔH of binding to BSA / ΔS of binding to BSA / ΔG of binding to BSA: pH 7.2; for Kq (quenching rate constant of biomolecule): calculated from Ksv with τ0 = 10^−8 s; for shift of BSA fluorescence emission upon addition of the agent: fluorescence titration, CBSA = 1.0 × 10^−5 M, pH 7.2, 288 K; for ΔH of binding to BSA / ΔS of binding to BSA: van't Hoff plot; for ΔG of binding to BSA: ΔG = ΔH − TΔS
Method: To investigate the possible mechanism responsible for fluorescence quenching, Stern–Volmer plots were used to interpret the spectral data. The procedure of fluorescence quenching was first assumed a dynamic quenching process. The dynamic quenching constant Ksv and the apparent biomolecular quenching rate constant Kq were calculated using the Stern–Volmer equation: (1) F0/F=1+Ksv[Q]=1+Kqτ0[Q] where, F0 and F are the steady-state fluorescence intensities in the absence and presence of a quencher, respectively; [Q] is the concentration of the quencher; Ksv is the Stern–Volmer dynamic quenching rate constant; τ0 is the fluorescence lifetime of the protein without the quencher, the average life of a fluorescence molecule is 10^−8 s; and Kq is the quenching rate constant of biomolecule. […] To distinguish the quenching model, additional experiments were conducted at different temperatures, as dynamic and static quenching have different temperature dependencies. With an increase in temperature, the Ksv values decrease for static quenching, and increase for dynamic quenching. […] Kq values calculated for DPPCAH and DPPCAH-Cu ranged from 5 × 10^12~7 × 10^12, and >2 × 10^10 L·mol^−1·s^−1, respectively, which further supported the static quenching model.
For the static quenching model, important binding parameters including association constant (Ka) and number of binding sites (n) were calculated from the plots using the equation: (2) log(F0−F/F0)=log Ka+nlog[Q] where, Ka is the binding constant, and n is the number of binding sites per BSA. Ka and n were obtained from the intercept and slope of the curve. […] The number of binding sites n was 1.0418 for DPPCAH and 1.1053 for DPPCAH-Cu, or approximately 1. Thus, the association of one molecule of quencher with one molecule of protein was confirmed. […] Similar results were reported from studies analyzing interaction of eupatorin with BSA [17].
The interaction of small molecules with biomacromolecule involves hydrogen bonds, electrostatic interactions, van der Waals, and hydrophobic forces. In the present study, the nature of the interaction involved in binding was determined based on thermodynamic parameters, namely, ΔH > 0 and ΔS > 0 would imply a hydrophobic interaction, ΔH < 0 and ΔS < 0 hint imply hydrogen bonding and van der Waals interactions, and ΔH< 0 and ΔS > 0 imply electrostatic force interactions. The thermodynamic parameters were obtained using the van’t Hoff Equation (3): (3) lnK=−ΔH/RT+ΔS/R where, K is the binding constant; T is the absolute temperature; and R is the universal gas constant. ΔH and ΔS were obtained from the slope and intercept of the linear van’t Hoff plot (shown in Figure 5). The free energy change (ΔG) was estimated using the following formula: ΔG = ΔH − TΔS
(§1) For the fluorescence spectra, the excitation wavelength was set at 280 nm and the emission spectra were recorded in the range of 300 to 450 nm. Both excitation and emission slit widths were adjusted to 5 nm. […] Fluorescence emission spectra were then measured on a RF-5301 Spectrofluorophotometer (Shimadzu Scientific Instruments, Kyoto, Japan) at three different temperatures (288, 303, and 310 K). In order to calculate the peak area, the integration of spectra was done in the range of 300 to 450 nm. Synchronous fluorescence spectra were recorded by simultaneously scanning the excitation and emission monochromators, in which a constant wavelength interval was maintained between them. The wavelength interval (Δλ = λem − λex) was fixed individually at 60 nm, at which characteristic information of pertaining to Trp residues was obtained.

[3] = target: T1, BSA; assay: Fluorescence resonance energy transfer (FRET) between BSA and bound agent; format: binding, bovine; details: for r (distance from bound agent to Trp-213 residue of BSA): FRET; for R0 (critical distance at 50% energy transfer efficiency): K^2 = 2/3, N = 1.336, ф = 0.15
Method: Further, the distance R between the two Trp residues in BSA and the bound DPPCAH (DPPCAH-Cu) was determined using the fluorescence resonance energy transfer (FRET) method. Generally, FRET occurs whenever the emission spectrum of a fluorophore (donor) overlaps with the absorption spectrum of the bound molecule (acceptor). The efficiency of energy transfer could be used to evaluate the distance between the drug and the Trp213 residue in BSA. The relationship between the distance and efficiency of FRET is described by the following equation: (4) E=1−F/F0=R06/R06+r^6 where, r is the distance between acceptor and donor and, R0 is the critical distance when the energy transfer efficiency is 50%. The value of R0 is calculated using the following equation: (5) R=8.8×10^−25 K^2 N^−4ΦJ where, K^2 is the relative orientation of the transition dipoles of donor and acceptor (K^2 = 2/3 for a random orientation); N is the average refractive index of the medium (N = 1.336); ф is the fluorescence quantum yield of donor (ф = 0.15); J is a factor describing the spectral overlap between the emission spectrum of donor and the absorption spectrum of acceptor. J is calculated using the following equation: (6) J=∑F(λ)ε(λ)λ^4Δλ/∑F(λ)Δλ where, λ is wavelength. To calculate the distance (r), E and J value are required. These values are derived from the fluorescence data and overlapped area between the emission spectrum of BSA and the absorption spectrum of DPPCAH (or DPPCAH-Cu) as shown in Figure 6a (or Figure 6b) after normalization. The experimental value for the efficiency to be used in Equation (4) was estimated by measuring the fluorescence at equal protein-ligand concentration as described in [27].
Absorbance spectrum of DPPCAH and DPPCAH-Cu were recorded on a UV-2450 spectrophotometer (Shimadzu (Suzhou) Co. Ltd., Suzhou, China) within the UV region in the range of 300 to 450 nm. Final concentrations of the agents concentration used for measurements were 10 μM (in Tris-HCl buffer, pH 7.2).
For the fluorescence spectra, the excitation wavelength was set at 280 nm and the emission spectra were recorded in the range of 300 to 450 nm. Both excitation and emission slit widths were adjusted to 5 nm. In this assay, 4.0 mL of BSA solution at a fixed concentration of […] was accurately added into the quartz cell (1 cm path length), and was manually titrated by successive additions of 10 mM DPPCAH (or DPPCAH-Cu) at intervals of 5 min. Fluorescence emission spectra were then measured on a RF-5301 Spectrofluorophotometer (Shimadzu Scientific Instruments, Kyoto, Japan) at three different temperatures (288, 303, and 310 K). In order to calculate the peak area, the integration of spectra was done in the range of 300 to 450 nm. Synchronous fluorescence spectra were recorded by simultaneously scanning the excitation and emission monochromators, in which a constant wavelength interval was maintained between them. The wavelength interval (Δλ = λem − λex) was fixed individually at 60 nm, at which characteristic information of pertaining to Trp residues was obtained.

[4] = target: T1, BSA; assay: Synchronous fluorescence spectra of BSA (Δλ = 60 nm); format: binding, bovine; details: CBSA = 10.0 μM, 288 K
Method: The bathochromic (or […]) shift noticed during fluorescence titration of BSA with the reagents, implied potent changes in the environment of Trp residues. To confirm these environmental changes, synchronous fluorescence spectra were recorded, because this technique yields information pertaining to the change in the polarity of the microregion near fluorophore molecules. By using different D-value (Δλ) between the excitation and emission wavelength, fluorescence contributors from different aromatic amino acids in the protein can be identified. When Δλ is stabilized at 60 nm, synchronous fluorescence spectroscopy provides the characteristic information specific to Trp residues. […] Although DPPCAH and DPPCAH-Cu could bind BSA, they induced different effects in BSA.
as §1

[5] = system: HepG2 cells; parameters: method as in PMID 26398524; details: cited from earlier work
[6] = target: T1, BSA; assay: Circular dichroism spectra of BSA, secondary structure simulated with K2D2; parameters: species or system bovine; details: molar ratio drug/protein = 2; CBSA = 15 μM; K2D2 simulation of CD data
Method: A direct calculation of secondary structures using experimental data was employed, but owing to the larger errors, the K2D2 software was used to simulate the experimental data of CD in the present study. The simulated curves are represented in the Supplementary Materials (Figure S1). In the absence of DPPCAH, the α-helix and β-sheet of BSA were 52% and 8.29% respectively.
BSA CD spectra in the range of 190–250 nm were recorded on a Chirascan (Applied Photophysics Ltd., Surrey, UK) with a 1.0 cm quartz cell in nitrogen atmosphere. BSA CD measurements in the presence and absence of DPPCAH (or DPPCAH-Cu) were performed with a scan rate of 50 nm/min. The A stock solution of 1.5 × 10^−5 M BSA was prepared in PBS. A 10 mM stock solution of DPPCAH was prepared in DMSO and the stock solution was diluted to 1.5 mM with water for measurements. Similarly, a solution of DPPCAH-Cu was prepared by mixing the DPPCAH solution with higher concentration of CuCl2 in water. The BSA concentration was held constant, while the DPPCAH concentration was varied (0, 1.5, 3.0 × 10^−5 M). The final concentration of DMSO in the measurements was less 0.5%. The buffer solution was chosen as the blank, and was manually subtracted from each spectrum during scanning. Each sample was scanned three times and the average was recorded for the CD spectrum.

[7] = 303 K (first value of the printed decrease with increasing temperature)
[8] = 310 K (second value of the printed decrease with increasing temperature)

T1 sequence (P02769 25-607): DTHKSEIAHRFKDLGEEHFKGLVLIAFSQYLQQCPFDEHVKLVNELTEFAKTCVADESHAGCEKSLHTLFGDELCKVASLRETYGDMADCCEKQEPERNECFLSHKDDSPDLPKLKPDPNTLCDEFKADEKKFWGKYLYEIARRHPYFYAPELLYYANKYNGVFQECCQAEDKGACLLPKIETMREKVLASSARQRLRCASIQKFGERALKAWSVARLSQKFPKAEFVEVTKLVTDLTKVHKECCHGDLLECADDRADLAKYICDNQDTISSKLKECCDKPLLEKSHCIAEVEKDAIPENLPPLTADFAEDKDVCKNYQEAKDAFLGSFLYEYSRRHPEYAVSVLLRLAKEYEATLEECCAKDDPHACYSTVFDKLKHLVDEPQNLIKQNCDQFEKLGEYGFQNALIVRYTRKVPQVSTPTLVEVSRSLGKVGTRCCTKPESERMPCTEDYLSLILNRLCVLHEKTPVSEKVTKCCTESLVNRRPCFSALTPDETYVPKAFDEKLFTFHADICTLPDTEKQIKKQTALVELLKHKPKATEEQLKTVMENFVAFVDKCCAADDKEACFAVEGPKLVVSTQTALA

| Compound | number of binding sites n per BSA ([2]; 288 K, CBSA = 10 μM) | Ksv (Stern-Volmer dynamic quenching constant) [2, 7] | Ksv (Stern-Volmer dynamic quenching constant) [2, 8] | Kq (quenching rate constant of biomolecule) [2] | shift of BSA fluorescence emission upon addition of the agent [2] | ΔH of binding to BSA ([2]; 288 K) | ΔS of binding to BSA ([2]; 288 K) | ΔG of binding to BSA ([2]; 288 K) | r (distance from bound agent to Trp-213 residue of BSA) [3] | R0 (critical distance at 50% energy transfer efficiency) [3] | decrease of fluorescence intensity of Trp residue [4] | shift of maximum emission wavelength of Trp in synchronous fluorescence [4] | other results |
| --- | --- | --- | --- | --- | --- | --- | --- | --- | --- | --- | --- | --- | --- |
| O=C(NN=C(c1ccccn1)c1ccccn1)c1ccccn1 [DPPCAH, di-2-pyridylketone-2-pyridine carboxylic acid hydrazone] | 1.0418 | 7.0 × 10^4 | 5.08 × 10^4 | 5 × 10^12~7 × 10^12 L·mol^−1·s^−1 | bathochromic red shift | -11.23 kcal/mol | −60.0 J/mol·K | -7.096 kcal/mol | 2.03 nm | 2.35 nm | 55% | significant red shift | effect of BSA on growth inhibition of HepG2 cells mediated by the agent [1]: attenuated the growth inhibition; IC50 ([5]; read-out: IC50, growth inhibition of HepG2 cells): 4.6 ± 0.2 µM |
| Copper complex of di-2-pyridylketone 2-pyridinecarboxylic acid hydrazone [DPPCAH-Cu] | 1.1053 | 5.47 × 10^4 | 4.9 × 10^4 | > 2e+10 L/mol/s | blue shift | -9.218 kcal/mol | −41.5 J/mol·K | -6.36 kcal/mol | 2.32 nm | 2.7 nm | 50% | blue shift | Ka (association constant with BSA) ([2]; 288 K, CBSA = 10 μM, pH 7.2 (10 mM Tris-HCl)): 6.56 ×10^4; binding energy obtained from fluorescence quenching ([2]; at 288 K, quoted for comparison with docking): -7.1 kcal/mol; R0 (critical distance at 50% energy transfer efficiency) ([3]; listed as BSA-DPPCAH-Cu): 2.70 nm; J (spectral overlap of BSA emission and agent absorption) ([3]; calculated from spectra): 1.7e-14 cm^3·L·mol^-1; decrease in α-helix of BSA [6]: 3.5%; increase in β-sheet of BSA [6]: 1.45%; antitumor activity compared with DPPCAH [5]: significantly enhanced the antitumor activity |

— article PMC6274005, “Interaction of Di-2-pyridylketone 2-pyridine Carboxylic Acid Hydrazone and Its Copper Complex with BSA: Effect on Antitumor Activity as Revealed by Spectroscopic Studies” (Molecules, 2016)
